The text below walks through data of PubChem BioAssay (NCI).

“And” between values parts separate entries of the source, which are not always exact repeats. Equal values may be shown once.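 Exposure lasted 48 hours, with cells grown in 96-well plates and compounds tested at five concentrations. GI50 marks 50% less growth. TGI: concentration producing complete growth inhibition.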 A value given as a limit tells only on which side of the number the result lay.

Some test systems named below: HCT-116 colon; HCC-2998 colon; NCI-H23 lung; EKVX NSCLC; MOLT-4 leukemia; CAKI-1 renal; NCI-H226 lung; SK-MEL-2 melanoma; UACC-257 melanoma; HS 578T breast.
Holding throughout (test): growth of human tumour cells (NCI), 48 h

With `Cn1cnc([N+](=O)[O-])c1Sc1ccccn1`, the TGI with HCT-116 colon, with HCC-2998 colon, in the assay on NCI-H23 lung, in the assay on EKVX NSCLC, in the assay with MOLT-4 leukemia and in the assay on CAKI-1 renal was over 100 µM in each case. Besides, the TGI with NCI-H226 lung, in the assay on SK-MEL-2 melanoma and in the assay with UACC-257 melanoma was over 100 µM in each case.

Regarding `C=CN1C(=O)OC(c2ccccc2)C1c1ccccc1` (configuration not stated), the GI50 in the assay on HCT-116 colon, with HCC-2998 colon, with NCI-H23 lung, in the assay with EKVX NSCLC, in the assay with MOLT-4 leukemia and with CAKI-1 renal was over 100 µM each time. Moreover, the GI50 with NCI-H226 lung, in the assay on SK-MEL-2 melanoma and in the assay with UACC-257 melanoma was over 100 µM each time. Besides, the TGI in the assay on HCT-116 colon, in the assay on HCC-2998 colon, in the assay on NCI-H23 lung, in the assay with EKVX NSCLC, with MOLT-4 leukemia and with CAKI-1 renal was over 100 µM in each case. In addition, the TGI in the assay on NCI-H226 lung, in the assay on SK-MEL-2 melanoma and in the assay on UACC-257 melanoma was over 100 µM throughout.

Consider `Cc1cnc[nH]c1=O`, for which the TGI in the assay on HCT-116 colon, with HCC-2998 colon, in the assay with NCI-H23 lung, in the assay with EKVX NSCLC, with MOLT-4 leukemia and in the assay with CAKI-1 renal was over 100 µM in each case. Further, the TGI in the assay with NCI-H226 lung, in the assay on SK-MEL-2 melanoma and in the assay on UACC-257 melanoma was over 100 µM throughout.

On to `CCOc1ccc2[nH]c3c(C)c4cc[n+](C)cc4c(C)c3c2c1`, for which the TGI in the assay with HCT-116 colon was 18.5 µM and > 37.7 µM; in the assay with HCC-2998 colon, 10.6 µM and 16.2 µM; in the assay with NCI-H23 lung it was 3.38 µM and 3.31 µM; in the assay with EKVX NSCLC it was over 100 µM; in the assay with MOLT-4 leukemia, 21.6 µM and > 56 µM; with CAKI-1 renal, over 35.3 µM. In addition, the TGI with NCI-H226 lung is 0.965 µM and 2.88 µM; in the assay with SK-MEL-2 melanoma, 2.53 µM and 8.79 µM; with UACC-257 melanoma, 13.7 µM and 27.8 µM. In the assay with MOLT-4 leukemia, the GI50 is 1.11 µM and 2.69 µM.

In the case of `Cc1cc(C)cc(-n2c3nc(=O)n(C)c(=O)c-3nc3ccccc32)c1`, the TGI in the assay on HCT-116 colon is 59.8 µM; in the assay on HCC-2998 colon it was 49.9 µM; in the assay on NCI-H23 lung, 39 µM; in the assay with EKVX NSCLC, 44.7 µM; in the assay on MOLT-4 leukemia, 52.4 µM; in the assay on CAKI-1 renal, 87.3 µM. Also, the values for the TGI in the assay on NCI-H226 lung, with SK-MEL-2 melanoma and in the assay on UACC-257 melanoma were over 100 µM, 63.5 µM and 31.2 µM, respectively.

With `COc1ccc(/C=C/c2c(C(=O)/C=C/c3ccc(Cl)cc3)c(C)nc3ccccc23)cc1`, the GI50 in the assay with HCT-116 colon is 0.799 µM; in the assay with HCC-2998 colon it was 1.57 µM; in the assay on NCI-H23 lung, 1.39 µM; in the assay on EKVX NSCLC, 1.55 µM; in the assay on MOLT-4 leukemia, 2 µM; with CAKI-1 renal, 1.14 µM. The figures for the GI50 in the assay with NCI-H226 lung, in the assay with SK-MEL-2 melanoma and with UACC-257 melanoma were 1.8 µM, 1.83 µM and 2.09 µM, respectively. Besides, the TGI is 2.19 µM in the assay on HCT-116 colon; 3.06 µM in the assay with HCC-2998 colon; 3.35 µM in the assay on NCI-H23 lung; 3.49 µM in the assay on EKVX NSCLC; over 100 µM with MOLT-4 leukemia; 2.62 µM in the assay with CAKI-1 renal. For the same compound, the TGI in the assay with NCI-H226 lung worked out at 3.72 µM; in the assay on SK-MEL-2 melanoma, 4.06 µM; with UACC-257 melanoma, 4.55 µM.

As for `Cc1c[nH]c2c1C13CC1CN(C(=O)c1cc4cc(NC(=O)c5cc6ccccc6o5)ccc4[nH]1)C3=CC2=O` (configuration not stated), the GI50 in the assay on HCT-116 colon, with HCC-2998 colon, in the assay on NCI-H23 lung, with MOLT-4 leukemia, in the assay with CAKI-1 renal and in the assay with SK-MEL-2 melanoma was over 1.17 ng/mL each time. Besides, the TGI in the assay with HCT-116 colon was 11.2 nM and 0.117 µg/mL; in the assay on HCC-2998 colon, under 0.001 µM; with NCI-H23 lung, under 0.001 µM; in the assay on MOLT-4 leukemia it was 0.0031 µM; with CAKI-1 renal it was under 0.001 µM; in the assay on NCI-H226 lung, under 0.001 µM. For the same compound, the TGI in the assay on SK-MEL-2 melanoma is under 0.001 µM.

For `CCOC(=O)C1N(S(=O)(=O)c2ccc(C)cc2)CCC12c1ccccc1N(C(C)=O)C2C(/C=C/C(=O)OC)=C/C(=O)OC` (configuration not stated), the TGI in the assay on HCT-116 colon, with HCC-2998 colon, with NCI-H23 lung, in the assay on EKVX NSCLC, with CAKI-1 renal and in the assay with NCI-H226 lung was over 100 µM throughout. Further, in the assay with UACC-257 melanoma, the TGI is over 100 µM.

Regarding `O=C(/C=C/c1ccc(C(F)(F)F)cc1)c1ccc(Nc2nc(NCCO)nc(NCCO)n2)cc1`, the GI50 in the assay with HCT-116 colon was 1.79 µM; with HCC-2998 colon, 3.25 µM; in the assay with NCI-H23 lung, 3.85 µM; in the assay with EKVX NSCLC, 3.49 µM; in the assay on MOLT-4 leukemia, 2.68 µM; in the assay on NCI-H226 lung, 2.62 µM. In addition, the GI50 was 5.44 µM in the assay on HS 578T breast and 10.3 µM in the assay with UACC-257 melanoma. Further, the TGI with HCT-116 colon was determined as 3.9 µM; in the assay with HCC-2998 colon, 11.2 µM; in the assay with NCI-H23 lung it was 17.4 µM; with EKVX NSCLC it was 16.8 µM; in the assay with MOLT-4 leukemia, 10.7 µM; in the assay on NCI-H226 lung it was 9.65 µM. The TGI in the assay with HS 578T breast was 54 µM; with UACC-257 melanoma it was 23.4 µM.

Take `COC(=O)C[CH](C(=O)OC)[Ge]([CH3])([CH3])[S]c1ccccc1` (configuration not stated): the GI50 is 27.9 µM in the assay with HCT-116 colon; 40.4 µM with HCC-2998 colon; 22.9 µM in the assay with NCI-H23 lung; 16.1 µM in the assay on EKVX NSCLC; 3.37 µM in the assay on MOLT-4 leukemia; 20.8 µM in the assay on CAKI-1 renal. In addition, the GI50 in the assay on NCI-H226 lung is 13.8 µM; in the assay on SK-MEL-2 melanoma, 16.2 µM; in the assay with UACC-257 melanoma it was 33 µM. Further, the TGI is 58.2 µM in the assay with HCT-116 colon; over 100 µM in the assay with HCC-2998 colon; 64.7 µM in the assay on NCI-H23 lung; 75.2 µM in the assay on EKVX NSCLC; 18.4 µM in the assay with MOLT-4 leukemia; 47.8 µM in the assay with CAKI-1 renal. The TGI in the assay on NCI-H226 lung was 35.1 µM; with SK-MEL-2 melanoma it was over 100 µM; in the assay with UACC-257 melanoma, over 100 µM.
